This note sets out measurements from article PMC10693631, “A multi-reservoir extruder for time-resolved serial protein crystallography and compound screening at X-ray free-electron lasers” (Nature Communications, 2023).

This assay concerns the target T1, Krokinobacter eikastus rhodopsin 2 (KR2) (Dokdonia eikasta, UniProt N0DKS8).
T1 construct: gene NaR; light-driven sodium pump, membrane protein crystallised in monoolein LCP; expression and purification only cited
T1 sequence (N0DKS8 1-280): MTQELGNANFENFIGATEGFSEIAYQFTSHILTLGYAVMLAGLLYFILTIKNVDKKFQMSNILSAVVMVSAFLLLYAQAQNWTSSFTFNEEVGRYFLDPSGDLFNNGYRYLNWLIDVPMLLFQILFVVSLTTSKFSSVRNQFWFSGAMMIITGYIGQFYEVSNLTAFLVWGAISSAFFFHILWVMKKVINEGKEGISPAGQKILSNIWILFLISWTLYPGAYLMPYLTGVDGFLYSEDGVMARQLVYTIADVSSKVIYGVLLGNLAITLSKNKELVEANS
Nature of the assay: time-resolved serial femtosecond crystallography (XFEL, room temperature), dark state. It counts as binding. The settings on record: covalent, light state 1 us after 575 nm pulse deposited as 8CL8, crystals shifted to pH 9.0, 150 mM NaCl.

With `CC1=C(/C=C/C(C)=C/C=C/C(C)=C/C=O)C(C)(C)CCC1` [retinal], the “time-resolved serial femtosecond crystallography (XFEL, room temperature), dark” value is “examining structural changes after photoactivation of its retinal chromophore”.
